From US20040121947A1, “Compounds which inhibit beta-secretase activity and methods of use thereof” (Oklahoma Medical Research Foundation, priority 2000, published 2004) come the findings set out here.

Where two headings read alike, the source gives them in different places.

In the experiment the target is T1, memapsin 2 (Homo sapiens, UniProt P56817).
T1 construct: pET-11 vector-derived residues 1-15 of promemapsin 2-T1 (N, cleaved yes); made in house; host or cells: E. coli
Description: Inhibition of memapsin 2 proteolytic activity, fluorogenic substrate FS-2. Format: biochemical. The settings on record: for Vi/Vo: ratio of initial cleavage velocities of FS-2 with/without compound, enzyme and inhibitor concentrations equal (e.g., about 80 nM, 100 nM). Put shortly: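 Spontaneously activated memapsin 2 (80 nM final) equilibrated with inhibitor (about 10 nM–10 μM) in 0.1 M NaOAc pH 4.0 with 10% DMSO for 20 min at 37 °C, with fluorogenic substrate FS-2. Ki converted from Ki apparent using substrate concentration and Km.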

[1] abbreviates: memapsin 2, apparent Ki in presence of substrate FS-2, read-out: Ki app.
Where [2] appears, read: memapsin 2, independent of substrate, converted from Ki apparent, read-out: Ki.
Where [3] appears, read: Ki, [I] < 100, memapsin 2, [I] < 100 (nM).
The mark [4] stands for this setting: memapsin 2, apparent Ki in presence of substrate FS-2.
The mark [5] stands for this setting: memapsin 2, independent of substrate, converted from Ki apparent.

T1 sequence (P56817 41-454 limits assumed): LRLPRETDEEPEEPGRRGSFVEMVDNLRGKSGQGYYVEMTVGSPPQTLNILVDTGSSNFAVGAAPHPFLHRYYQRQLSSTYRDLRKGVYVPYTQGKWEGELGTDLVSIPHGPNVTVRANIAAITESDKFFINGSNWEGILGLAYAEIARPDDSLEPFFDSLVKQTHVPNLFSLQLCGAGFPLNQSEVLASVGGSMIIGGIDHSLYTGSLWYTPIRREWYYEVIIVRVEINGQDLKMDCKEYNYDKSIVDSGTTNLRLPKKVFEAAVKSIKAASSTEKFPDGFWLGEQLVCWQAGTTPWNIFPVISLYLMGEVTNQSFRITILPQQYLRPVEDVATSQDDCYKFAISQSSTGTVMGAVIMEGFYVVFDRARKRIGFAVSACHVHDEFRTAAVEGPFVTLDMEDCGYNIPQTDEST

Turning to `CCCCNC(=O)[C@H](CC(C)C)NC(=O)[C@H](C)C[C@H](O)[C@H](CC(C)C)NC(=O)[C@H](CCSC)NC(=O)[C@H](CC(C)C)NC(=O)OC(C)(C)C` [MMI-160], the Vi/Vo is on record as 0.19. For the same compound, the Ki under setting [1] came to 4.15 nM. Moreover, the Ki under setting [2] came out at 2.59 nM.
On the same counts, the results for `CSCC[C@H](NC(=O)[C@H](CC(C)C)NC(=O)OC(C)(C)C)C(=O)N[C@@H](CC(C)C)[C@@H](O)C[C@@H](C)C(=O)N[C@H](C(=O)NCc1ccco1)C(C)C` [MMI-161] are 0.06, 0.68 nM and 0.43 nM.
`CSCC[C@H](NC(=O)[C@@H](NC(=O)OC(C)(C)C)C(C)C)C(=O)N[C@@H](CC(C)C)[C@@H](O)C[C@@H](C)NC(=O)[C@H](NC(=O)OCc1ccccc1)C(C)C` [MMI-162]: the Vi/Vo was 0.98.
Still for that read-out and setting: as for `CSCC[C@H](NC(=O)[C@@H](NC(=O)OC(C)(C)C)C(C)C)C(=O)N[C@@H](CC(C)C)[C@@H](O)C[C@@H](C)NC(=O)[C@@H](NC(=O)OCc1ccccc1)C(C)C` [MMI-163], the figure is 0.57.
For `CSCC[C@H](C[C@H](O)[C@H](CC(C)C)NC(=O)[C@H](CCSC)NC(=O)[C@H](CC(C)C)NC(=O)OC(C)(C)C)C(=O)N[C@H](C(=O)NCc1ccccc1)C(C)C` [MMI-164], the Vi/Vo is 0.29. The Ki under setting [1] is 12.8 nM. Besides, the Ki under setting [2] was found to be 7.98 nM.
On the same counts, the results for `CSCC[C@H](NC(=O)OCn1nc(C)cc1C)C(=O)N[C@@H](CC(C)C)[C@@H](O)C[C@@H](C)C(=O)N[C@@H](CC(C)C)C(=O)NCC(C)C` [MMI-166] are 0.76, 108 nM and 67.4 nM.
In the case of `CSCC[C@H](NC(=O)[C@@H](NC(=O)OC(C)(C)C)C(C)C)C(=O)N[C@@H](CC(C)C)[C@@H](O)C[C@H](C)NC(=O)[C@@H](NC(=O)OCc1ccccc1)C(C)C` [MMI-168], the Vi/Vo stood at 0.75.
Consider `CSCC[C@H](NC(=O)[C@@H](NC(=O)OC(C)(C)C)C(C)C)C(=O)N[C@@H](CC(C)C)[C@@H](O)C[C@H](C)NC(=O)[C@H](NC(=O)OCc1ccccc1)C(C)C` [MMI-169], for which the Vi/Vo is reported as 1.1.
Take `CSCC[C@H](NC(=O)OCn1nc(C)cc1C)C(=O)N[C@@H](CC1CCCC1)[C@@H](O)C[C@@H](C)C(=O)N[C@@H](CC(C)C)C(=O)NCC(C)C` [MMI-170]: the Vi/Vo amounted to 1.08.
As for `CCCCNC(=O)[C@@H](NC(=O)[C@H](C)C[C@H](O)[C@H](CC1CCCC1)NC(=O)[C@H](CCSC)NC(=O)OCn1nc(C)cc1C)C(C)C` [MMI-172], the Vi/Vo was found to be 1.05. Moreover, under setting [1], the Ki was determined as 447 nM. In addition, under setting [2], the Ki came out at 279 nM.
With `CSCC[C@H](NC(=O)OCCn1nc(C(C)(C)C)cc1C(C)(C)C)C(=O)N[C@@H](CC(C)C)[C@@H](O)C[C@@H](C)C(=O)N[C@@H](CC(C)C)C(=O)NCC(C)C` [MMI-177], the Vi/Vo is 1.16.
`CCCCNC(=O)[C@@H](NC(=O)[C@H](C)C[C@H](O)[C@H](CC1CCC1)NC(=O)[C@H](CCSC)NC(=O)OCn1nc(C)cc1C)C(C)C` [MMI-178]: the Vi/Vo worked out at 0.69. Besides, under setting [1], the Ki is 24.5 nM. In addition, the Ki under setting [2] is 15.3 nM.
In the case of `CSCC[C@H](NC(=O)[C@@H](NC(=O)OC(C)(C)C)C(C)C)C(=O)N[C@@H](CC(C)C)[C@@H](O)C[C@@H](C)C(=O)N[C@@H](CC(C)C)C(=O)N1CCOCC1` [MMI-183], the Vi/Vo is listed as 0.64. In addition, the Ki under setting [3] turned out to be 108 nM. Besides, the Ki under setting [1] was determined as 6740 nM. The Ki under setting [2] turned out to be 4210 nM.
For `CSCC[C@H](NC(=O)[C@@H](NC(=O)OC(C)(C)C)C(C)C)C(=O)N[C@@H](CC(C)C)[C@@H](O)C[C@@H](C)C(=O)N[C@@H](CC(C)C)C(=O)N1CCN(C)CC1` [MMI-184], in that order: 0.6, 64 nM, 194 nM and 121 nM.
As to `CSCC[C@H](NC(=O)OCc1ccnn1C)C(=O)N[C@@H](CC(C)C)[C@@H](O)C[C@@H](C)C(=O)N[C@H](C(=O)NCC(C)C)C(C)C` [MMI-186], the Ki under setting [1] stood at 217 nM and the Ki under setting [2] is 136 nM.
For `CSCC[C@H](NC(=O)[C@@H](NC(=O)OC(C)(C)C)C(C)C)C(=O)N[C@@H](CC(C)C)[C@@H](O)C[C@]1(C)CCN([C@H](C(=O)NCC(C)C)C(C)C)C1=O` [MMI-187], the Ki app result under setting [4] is “N.I”. Further, under setting [5], the Ki entry is given as “N.I”.
As for `CSCC[C@H](NC(=O)OCc1ncc(C)n1C)C(=O)N[C@@H](CC(C)C)[C@@H](O)C[C@@H](C)C(=O)N[C@H](C(=O)NCC(C)C)C(C)C` [MMI-188], the Ki is, setting by setting: under setting [1], 230 nM; under setting [2], 144 nM.
For `CSCC[C@H](NC(=O)OCc1c(C)ncn1C)C(=O)N[C@@H](CC(C)C)[C@@H](O)C[C@@H](C)C(=O)N[C@H](C(=O)NCC(C)C)C(C)C` [MMI-189], in that order: 358 nM and 224 nM.
For `COCOCC[C@H](NC(=O)[C@H](CC(C)C)NC(=O)OC(C)(C)C)C(=O)N[C@@H](CC(C)C)[C@@H](O)C[C@@H](C)C(=O)N[C@@H](CC(C)C)C(=O)NC(C)C` [MMI-190], in that order: 29.1 nM and 18.2 nM.
For `CSCC[C@H](NC(=O)[C@@H](NC(=O)OC(C)(C)C)C(C)C)C(=O)N[C@@H](CC(C)C)[C@@H](O)C[C@]1(C)CCN([C@@H](CC(C)C)C(=O)NCC(C)C)C1=O` [MMI-191], the Ki app result under setting [4] was “N.I”. In addition, the Ki result under setting [5] is reported as “N.I”.
In the case of `CSCC[C@H](NC(=O)[C@@H](NC(=O)OC(C)(C)C)C(C)C)C(=O)N[C@@H](CC(C)C)[C@@H](O)C[C@]1(C)CCN([C@H](C(=O)N2CCN(C)CC2)C(C)C)C1=O` [MMI-192], the Ki under setting [1] is 374 nM and the Ki under setting [2] amounted to 234 nM.
As to `CSCC[C@H](NC(=O)OCc1cc(C)nn1C)C(=O)N[C@@H](CC(C)C)[C@@H](O)C[C@@H](C)C(=O)N[C@H](C(=O)NCC(C)C)C(C)C` [MMI-193], the Ki under setting [1] worked out at 288 nM and the Ki under setting [2] was 180 nM.
On the same counts, the results for `CSCC[C@H](NC(=O)CCn1nc(C)cc1C)C(=O)N[C@@H](CC(C)C)[C@@H](O)C[C@@H](C)C(=O)N[C@H](C(=O)NCC(C)C)C(C)C` [MMI-194] are 62.3 nM and 38.9 nM.
On the same counts, the results for `CSCC[C@H](NC(=O)C(C)Cn1nc(C)cc1C)C(=O)N[C@@H](CC(C)C)[C@@H](O)C[C@@H](C)C(=O)N[C@H](C(=O)NCC(C)C)C(C)C` (stereo partly shown) [MMI-195] are 451 nM and 282 nM.
On the same counts, the results for `CSCC[C@H](NC(=O)[C@@H](NC(=O)OC(C)(C)C)[C@H](C)O)C(=O)N[C@@H](CC(C)C)[C@@H](O)C[C@@H](C)C(=O)N[C@@H](CC(C)C)C(=O)NC(C)C` [MMI-197] are 94.5 nM and 59.1 nM.
With `CSCC[C@H](NC(=O)[C@H](C(C)C)N1CCCNC1=O)C(=O)N[C@@H](CC(C)C)[C@@H](O)C[C@@H](C)C(=O)N[C@@H](CC(C)C)C(=O)NCC(C)C` [MMI-198], the Ki is, setting by setting: under setting [1], 756 nM; under setting [2], 473 nM.
Take `COc1cccc(C(=O)N[C@@H](CSC)C(=O)N[C@@H](CC(C)C)[C@@H](O)C[C@@H](C)C(=O)N[C@@H](CC(C)C)C(=O)NC(C)C)c1OC` [MMI-199]: the Ki by setting is: under setting [3], 190 nM; under setting [1], 963 nM; under setting [2], 602 nM.
In the case of `CSCC[C@H](NC(=O)c1cccc(O)c1O)C(=O)N[C@@H](CC(C)C)[C@@H](O)C[C@@H](C)C(=O)N[C@@H](CC(C)C)C(=O)NC(C)C` [MMI-200], the Ki runs as follows: under setting [1], 1530 nM; under setting [2], 956 nM.
For `CSCC[C@H](C[C@H](O)[C@H](Cc1ccccc1)NC(=O)[C@H](CCSC)NC(=O)[C@@H](NC(=O)OC(C)(C)C)C(C)C)C(=O)N[C@H](C(=O)NCc1ccccc1)C(C)C` [MMI-201], in that order: 58 nM and 36.2 nM.
On the same counts, the results for `CSCC[C@H](NC(=O)[C@@H](NC(=O)OC(C)(C)C)C(C)C)C(=O)N[C@@H](CC(C)C)[C@@H](O)C[C@H](C(=O)N[C@H](C(=O)NCc1ccccc1)C(C)C)C(C)C` [MMI-202] are 688 nM and 430 nM.
On the same counts, the results for `CSCC[C@H](NC(=O)OCCn1nc(C)cc1C)C(=O)N[C@@H](CC(C)C)[C@@H](O)C[C@@H](C)C(=O)N[C@@H](CC(C)C)C(=O)NC(C)C` [MMI-203] are 361 nM and 225 nM.
As to `CC(C)C[C@H](NC(=O)OC(C)(C)C)C(=O)N[C@@H](CC1CCCO1)C(=O)N[C@@H](CC(C)C)[C@@H](O)C[C@@H](C)C(=O)N[C@@H](CC(C)C)C(=O)NC(C)C` (stereo partly shown) [MMI-205], the Ki by setting is: under setting [1], 48.8 nM; under setting [2], 30.5 nM.
With `COc1cccc(C(=O)N[C@@H](CCSC)C(=O)N[C@@H](CC(C)C)[C@@H](O)C[C@@H](C)C(=O)N[C@@H](CC(C)C)C(=O)NC(C)C)c1OC` [MMI-206], the Ki is, setting by setting: under setting [3], 292 nM; under setting [1], 1210 nM; under setting [2], 758 nM.
On the same counts, the results for `COc1ccccc1C(=O)N[C@@H](CCSC)C(=O)N[C@@H](CC(C)C)[C@@H](O)C[C@@H](C)C(=O)N[C@@H](CC(C)C)C(=O)NC(C)C` [MMI-207] are 1830 nM, 1580 nM and 988 nM.
On the same counts, the results for `COc1ccc(C(=O)N[C@@H](CCSC)C(=O)N[C@@H](CC(C)C)[C@@H](O)C[C@@H](C)C(=O)N[C@@H](CC(C)C)C(=O)NC(C)C)cc1` [MMI-208] are 407 nM, 1950 nM and 1220 nM.
For `COc1cccc(C(=O)N[C@@H](CCSC)C(=O)N[C@@H](CC(C)C)[C@@H](O)C[C@@H](C)C(=O)N[C@@H](CC(C)C)C(=O)NC(C)C)c1` [MMI-209], the Ki stood at 1300 nM under setting [1] and 812 nM under setting [2].
Consider `CSCC[C@H](NC(=O)c1cccc(C)c1C)C(=O)N[C@@H](CC(C)C)[C@@H](O)C[C@@H](C)C(=O)N[C@@H](CC(C)C)C(=O)NC(C)C` [MMI-210], for which the Ki runs as follows: under setting [1], 899 nM; under setting [2], 562 nM.
